Data from patent US20260125382A1, “COMPOUNDS FOR INHIBITING OR DEGRADING CDK2 AND/OR CDK9 AND MEDICINAL USE THEREOF” (KOREA RESEARCH INSTITUTE OF CHEMICAL TECHNOLOGY, priority 2022, published 2026).

Tests used:
CDK2 = target: T1, CDK2 (Homo sapiens, UniProt P24941); test: CDK protein degradation activity (Western blotting), CDK2; format: cell-based; details: MDA-MB-231 cells, 16 hours, Western blot
T1 construct: endogenous in cells; host or cells: MDA-MB-231
Procedure, shortened: (§1)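 Protein levels were read by Western blot densitometry, tubulin serving as loading reference. Beforehand, MDA-MB-231 cells had been exposed for 16 hours to 100 nM, 1 μM or 10 μM compound, DMSO as control.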

CDK9 = target: T2, CDK9 (Homo sapiens, UniProt P50750); test: CDK protein degradation activity (Western blotting), CDK9; format: cell-based; details: MDA-MB-231 cells, 16 hours, Western blot
T2 construct: endogenous in cells; host or cells: MDA-MB-231
T2 sequence (P50750 whole entry): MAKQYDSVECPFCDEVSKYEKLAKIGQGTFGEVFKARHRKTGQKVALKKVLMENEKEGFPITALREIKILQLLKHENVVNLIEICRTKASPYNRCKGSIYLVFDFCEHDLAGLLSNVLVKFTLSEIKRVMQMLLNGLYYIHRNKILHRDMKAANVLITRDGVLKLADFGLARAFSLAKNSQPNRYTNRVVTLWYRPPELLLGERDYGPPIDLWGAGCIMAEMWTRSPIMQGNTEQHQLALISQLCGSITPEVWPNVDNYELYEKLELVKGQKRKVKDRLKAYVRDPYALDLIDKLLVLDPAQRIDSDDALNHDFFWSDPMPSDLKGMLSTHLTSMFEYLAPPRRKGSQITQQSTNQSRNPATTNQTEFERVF
Procedure, shortened: as §1

Row | Compound | Enzyme degradation CDK2 (% remaining) @ 0.1 μM (CDK2) | Enzyme degradation CDK2 (% remaining) @ 1 μM (CDK2) | Enzyme degradation CDK2 (% remaining) @ 10 μM (CDK2) | Enzyme degradation CDK9 (% remaining) @ 0.1 μM (CDK9) | Enzyme degradation CDK9 (% remaining) @ 1 μM (CDK9) | Enzyme degradation CDK9 (% remaining) @ 10 μM (CDK9)
1 | O=C1CCC(N2C(=O)c3cc(F)c(N4CCC(N5CCN(c6ccc(Nc7ncnc8c7ncn8[C@H]7C[C@@H](NC(=O)Cc8ccccc8)C7)cc6)CC5)CC4)cc3C2=O)C(=O)N1 (stereo partly drawn) [Compound 333, N-((1s,3s)-3-(6-((4-(4-(1-(2-(2,6-dioxopiperidin-3-yl)-6-fluoro-1,3-dioxoisoindolin-5-yl)piperidin-4-yl)piperazin-1-yl)phenyl)amino)-9H-purin-9-yl)cyclobutyl)-2-phenylacetamide] | 50% | 10% | 10% | 50% | 0% | 0%
2 | Cc1cccc(C(=O)NC2CC(n3cnc4c(NC5CCN(C(=O)CC6CCN(C(=O)CNc7ccc8c(c7)C(=O)N([C@H]7CCC(=O)NC7=O)C8=O)CC6)CC5)ncnc43)C2)n1 (stereo partly drawn) [Compound 51, N-((1s,3s)-3-(6-((1-(2-(1-((2-(2,6-dioxopiperidin-3-yl)-1,3-dioxoisoindolin-5-yl)glycyl)piperidin-4-yl)acetyl)piperidin-4-yl)amino)-9H-purin-9-yl)cyclobutyl)-6-methylpicolinamide] | 70% | 20% | 20% | 70% | 0% | 0%
3 | O=C1CC[C@H](N2C(=O)c3ccc(N4CCC(C(=O)N5CCC6(CC5)CC(N5CCN(c7ccc(Nc8ncnc9c8ncn9C8CC(NC(=O)Cc9ccccc9)C8)cc7)CC5)C6)CC4)cc3C2=O)C(=O)N1 (stereo partly drawn) [Compound 353, N-((1s,3s)-3-(6-((4-(4-(7-(1-(2-(2,6-dioxopiperidin-3-yl)-1,3-dioxoisoindolin-5-yl)piperidin-4-carbonyl)-7-azaspiro[3.5]nonan-2-yl)piperazin-1-yl)phenyl)amino)-9H-purin-9-yl)cyclobutyl)-2-phenylacetamide] | 70% | 40% | 40% | 10/10/10% | 10/10/10% | 10/10/10%
4 | O=C1CC[C@H](N2C(=O)c3ccc(NCC(=O)N4CCN(CC5CCN(c6ccc(Nc7ncnc8c7ncn8[C@H]7C[C@@H](NC(=O)c8c(Cl)cccc8Cl)C7)cc6)CC5)CC4)cc3C2=O)C(=O)N1 [Compound 312, 2,6-dichloro-N-((1s,3s)-3-(6-((4-(4-((4-((2-(2,6-dioxopiperidin-3-yl)-1,3-dioxoisoindolin-5-yl)glycyl)piperazin-1-yl)methyl)piperidin-1-yl)phenyl)amino)-9H-purin-9-yl)cyclobutyl)benzamide] | 10/10/10% | 10/10/10% | 10/10/10% | 0/0/0% | 0/0/0% | 0/0/0%
5 | O=C1CC[C@@H](c2cccc(OCC(=O)N3CC(CN4CCC5(CC4)CC(N4CCN(c6ccc(Nc7ncnc8c7ncn8[C@H]7C[C@@H](NC(=O)Cc8ccccc8)C7)cc6)CC4)C5)C3)c2)C(=O)N1 [Compound 276, N-((1s,3s)-3-(6-((4-(4-(7-((1-(2-(3-(2,6-dioxopiperidin-3-yl)phenoxy)acetyl)azetidin-3-yl)methyl)-7-azaspiro[3.5]nonan-2-yl)piperazin-1-yl)phenyl)amino)-9H-purin-9-yl)cyclobutyl)-2-phenylacetamide] | 30% | 20% | 20% | 10% | 0% | 0%
6 | Cc1cccc(C(=O)NC2CC(n3cnc4c(Nc5ccc(N6CCN(CC7CCN(C(=O)C8CCN(c9cc%10c(cc9F)C(=O)N([C@H]9CCC(=O)NC9=O)C%10=O)CC8)CC7)CC6)cc5C)ncnc43)C2)n1 (stereo partly drawn) [Compound 477, N-((1s,3s)-3-(6-((4-(4-((1-(1-(2-(2,6-dioxopiperidin-3-yl)-6-fluoro-1,3-dioxoisoindolin-5-yl)piperidin-4-carbonyl)piperidin-4-yl)methyl)piperazin-1-yl)-2-methylphenyl)amino)-9H-purin-9-yl)cyclobutyl)-6-methylpicolinamide] | 20/20/20% | 20/20/20% | 20/20/20% | 30/30/30% | 30/30/30% | 30/30/30%
7 | O=C1CC[C@H](N2C(=O)c3ccc(N4CCC(CN5CCN(c6ccc(Nc7ncnc8c7ncn8[C@H]7C[C@@H](NC(=O)Cc8ccccc8)C7)cc6)CC5)CC4)cc3C2=O)C(=O)N1 [Compound 179, N-((1s,3s)-3-(6-((4-(4-((1-(2-(2,6-dioxopiperidin-3-yl)-1,3-dioxoisoindolin-5-yl)piperidin-4-yl)methyl)piperazin-1-yl)phenyl)amino)-9H-purin-9-yl)cyclobutyl)-2-phenylacetamide] | 10% | 0% | 0% | 10% | 0% | 0%
8 | O=C1CC[C@H](N2C(=O)c3cccc(NCC(=O)N4CCC(CN5CCN(c6ccc(Nc7ncnc8c7ncn8C7CC(NC(=O)c8cccc(F)n8)C7)cc6)CC5)CC4)c3C2=O)C(=O)N1 (stereo partly drawn) [Compound 430, N-((1s,3s)-3-(6-((4-(4-((1-((2-(2,6-dioxopiperidin-3-yl)-1,3-dioxoisoindolin-4-yl)glycyl)piperidin-4-yl)methyl)piperazin-1-yl)phenyl)amino)-9H-purin-9-yl)cyclobutyl)-6-fluoropicolinamide] | 10/10/10% | 10/10/10% | 10/10/10% | 0/0/0% | 0/0/0% | 0/0/0%
9 | O=C1CCC(N2C(=O)c3ccc(N4CCC(C(=O)N5CCC(CN6CCN(c7ccc(Nc8ncnc9c8ncn9[C@H]8C[C@@H](NC(=O)c9cccc(C(F)(F)F)n9)C8)cc7)CC6)CC5)CC4)cc3C2=O)C(=O)N1 (stereo partly drawn) [Compound 470, N-((1s,3s)-3-(6-((4-(4-((1-(1-(2-(2,6-dioxopiperidin-3-yl)-1,3-dioxoisoindolin-5-yl)piperidin-4-carbonyl)piperidin-4-yl)methyl)piperazin-1-yl)phenyl)amino)-9H-purin-9-yl)cyclobutyl)-6-(trifluoromethyl)picolinamide] | 30/30/30% | 30/30/30% | 30/30/30% | 0/0/0% | 0/0/0% | 0/0/0%
